Measurements from patent publication US10039825B2, “Combination therapy with CD4 lymphocyte depletion and MTOR inhibitors” (Cedars-Sinai Medical Center, priority 2010, dated 2018).

Columns and labels:
[1] = tested on: CD4+FoxP3+ lymphocytes; assay: in vivo effect on CD4+FoxP3+ lymphocytes (flow cytometry); parameters: species or system B6 mice; details: treated daily for 24 days; FoxP3 staining gated on CD4; FIG. 1B
Protocol: Further, in vivo effect of temsirolimus on CD4+FoxP3+ lymphocytes was assessed. B6 mice (5 mice per group) were treated daily with temsirolimus for 24 days, 2 doses of vaccine (complex of hsp110 and gp100), or both. FoxP3 staining was quantified with flow cytometry while gating on CD4. […] Representative results are shown from at least 2 independent experiments.

[2] = tested on: C57 BL/6 or Pmel-1 mouse lymph node lymphocytes; assay: [3H] thymidine incorporation assay of stimulated lymph node lymphocytes; type: cell-based; details: lymphocytes stimulated with anti-CD3 and anti-CD28 mAb or gp100 peptide, 72 hours; FIG. 1A
Protocol: As has been well established, mTOR inhibitors have immune suppressing activity. For the [3H] thymidine incorporation assay, lymph nodes were harvested from naïve C57 BL/6 or Pmel-1 mouse, 3×10^5 cells/well were cultured in 96-well plates and stimulated, with or without mTOR inhibitors, for 72 hours. C57 BL/6 lymphocytes were stimulated with anti-CD3 and anti-CD28 mAb, and Pmel-1 lymphocytes were stimulated with […]. DNA synthesis was determined by incubation for 16 h with 1 μCi [3H]thymidine (Amersham Biosciences, Piscataway, N.J., USA).

[3] = tested on: RENCA tumor cells; assay: RENCA tumor re-challenge after treatment (antitumor immune memory); type: in vivo, Balb/c mice; details: re-challenged with 2×10^5 RENCA cells on day 47; tumor size 11 and 18 days after; FIG. 4
Protocol: Ten days after subcutaneous implantation of 2×10^5 tumor cells, Balb/c mice were treated with temsirolimus (30 ug/mouse daily on days 14 to 34, intraperitoneally) or temsirolimus plus CD4 depleting antibody (intraperitoneal injection of 200 μg of GK1.5 mAb, administered at day 6 and 10). Mice were re-challenged with 2×10^5 RENCA tumor cells on day 47. Naïve mouse group was also challenged with RENCA and served as a control. Tumor size was measured 11 and 18 days after the re-challenge. […] Since the mice were not being actively treated at the time of tumor re-challenge, direct antitumor effects of the therapy cannot account for the effects on tumor growth.

Structure (SMILES): CO[C@H]1C[C@@H]2CC[C@@H](C)[C@@](O)(O2)C(=O)C(=O)N2CCCC[C@H]2C(=O)O[C@H]([C@H](C)C[C@@H]2CC[C@@H](OC(=O)C(C)(CO)CO)[C@H](OC)C2)CC(=O)[C@H](C)/C=C(\C)[C@@H](O)[C@@H](OC)C(=O)[C@H](C)C[C@H](C)/C=C/C=C/C=C/1C [temsirolimus, Temsirolimus]
- Foxp3 positive lymphocytes (regulatory T cells) [1]: increased
- immune suppressing activity, DNA synthesis by [3H]thymidine incorporation [2]: nearly identical activities
- tumor growth after re-challenge [3]: grew at the same rate
